Measurements from ChEMBL document CHEMBL1150970, “Starfish saponins. 55. Isolation, structure elucidation, and biological activity of the steroid oligoglycosides from an Antarctic starfish of the family Asteriidae” (J Nat Prod, 1998).

Assay: Cytotoxicity against human NSCLC-L16 cells
Format: functional, cell-based

`CC(C)[C@@H](/C=C/[C@@H](C)[C@H]1C[C@H](O)[C@@H]2[C@]1(C)CC[C@@H]1[C@@]3(C)CC[C@H](O[C@@H]4OC[C@@H](O)[C@H](O)[C@H]4O)C[C@@H]3[C@H](O)C[C@]12O)COS(=O)(=O)[O-].[Na+]` [ASTERIIDOSIDE L] and `CC(C)[C@H](/C=C/[C@@H](C)[C@H]1C[C@@H](O)[C@@H]2[C@]1(C)CC[C@@H]1[C@@]3(C)CC[C@H](O[C@@H]4OC[C@@H](O)[C@H](O)[C@H]4O)C[C@@H]3[C@@H](O)[C@@H](O)[C@]12O)O[C@@H]1OC[C@@H](O)[C@H](OS(=O)(=O)[O-])[C@H]1O.[Na+]` [ASTERIIDOSIDE I] cannot be ordered by IC50: greater than 30 µg/mL for the first, greater than 30 µg/mL for the second.

First: CC(C)=CCC[C@](C)(O)[C@H]1CC[C@H]2[C@@H]3C[C@H](O[C@@H]4O[C@H](C)[C@@H](O)[C@H](O[C@@H]5OC[C@@H](O[C@@H]6O[C@H](C)[C@H](O)[C@H](O)[C@H]6O[C@@H]6OC[C@H](O)[C@H](O[C@@H]7O[C@H](CO)[C@H](O)[C@H](O)[C@H]7O)[C@H]6O)[C@H](O)[C@H]5O[C@@H]5O[C@H](C)[C@@H](O)[C@H](O)[C@H]5O)[C@H]4C)[C@H]4C[C@@H](OS(=O)(=O)[O-])CC[C@]4(C)C3=CC[C@@]21C.[Na+] [ASTERIIDOSIDE E]
Second: C=C(CC[C@](C)(O)[C@H]1CC[C@H]2[C@@H]3C[C@H](O[C@@H]4O[C@H](C)[C@@H](O)[C@H](O[C@@H]5OC[C@@H](O[C@@H]6O[C@H](C)[C@H](O)[C@H](O)[C@H]6O[C@@H]6OC[C@H](O)[C@H](O[C@@H]7O[C@H](CO)[C@H](O)[C@H](O)[C@H]7O)[C@H]6O)[C@H](O)[C@H]5O[C@@H]5O[C@H](C)[C@@H](O)[C@H](O)[C@H]5O)[C@H]4C)[C@H]4C[C@@H](OS(=O)(=O)[O-])CC[C@]4(C)C3=CC[C@@]21C)C(C)C.[Na+] [ASTERIIDOSIDE D]
The IC50 of the first is 1.6-fold higher: 18.1 µg/mL for the first, 11.4 µg/mL for the second.

`C[C@@H](C/C=C/[C@@H](C)[C@H]1[C@@H](O)[C@@H](O)[C@@H]2[C@]1(C)CC[C@@H]1[C@@]3(C)CC[C@H](O[C@@H]4OC[C@@H](O)[C@H](O)[C@H]4O)C[C@@H]3[C@@H](O)C[C@]12O)CO[C@@H]1OC[C@@H](O)[C@H](O)[C@H]1O` [ASTERIIDOSIDE F] and `CC(C)CC(=O)C[C@](C)(O)[C@H]1CC[C@H]2[C@@H]3C[C@H](O[C@@H]4O[C@H](C)[C@@H](O)[C@H](O[C@@H]5O[C@H](C)[C@@H](O[C@@H]6O[C@H](CO)[C@H](O)[C@H](O)[C@H]6O[C@@H]6O[C@H](C)[C@H](O)[C@H](O[C@@H]7O[C@H](CO)[C@H](O)[C@H](O)[C@H]7O)[C@H]6O)[C@H](O)[C@H]5O[C@@H]5O[C@H](C)[C@@H](O)[C@H](O)[C@H]5O)[C@H]4C)[C@H]4C[C@@H](OS(=O)(=O)[O-])CC[C@]4(C)C3=CC[C@@]21C.[Na+]` [ASTERIIDOSIDE A] cannot be ordered by IC50: greater than 30 µg/mL for the first, greater than 30 µg/mL for the second.
